Reference: patent US20250352506A1, “MRGPRB2/X2, AGONIST AND ANTAGONIST AND METHODS THEREOF” (THE UNIVERSITY OF HONG KONG, priority 2024, published 2025)
“Also recorded” adds a separate entry of the source.

Legend:
Mrgprx2 = target: T1, Mrgprx2 (Homo sapiens, UniProt Q96LB1); experiment: PRESTO-Tango GPCR β-arrestin recruitment assay in Mrgprx2-transfected HTLA cells; type: cell-based
T1 construct: Tango fusion cassette; expressed in transfected cells; host or cells: HTLA cells
T1 sequence (Q96LB1 1-330): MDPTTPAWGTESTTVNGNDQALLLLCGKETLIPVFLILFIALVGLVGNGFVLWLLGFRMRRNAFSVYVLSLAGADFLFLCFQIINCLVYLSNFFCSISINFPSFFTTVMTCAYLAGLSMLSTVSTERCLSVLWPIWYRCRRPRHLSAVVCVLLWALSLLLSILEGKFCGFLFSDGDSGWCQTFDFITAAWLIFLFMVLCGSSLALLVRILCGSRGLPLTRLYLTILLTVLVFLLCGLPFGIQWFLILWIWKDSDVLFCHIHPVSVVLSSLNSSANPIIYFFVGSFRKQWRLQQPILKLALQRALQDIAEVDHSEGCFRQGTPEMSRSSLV
Protocol: HTLA cells were maintained in DMEM supplemented with 10% FBS, 2 μg/mL puromycin and 100 μg/mL hygromycin B in a humidified atmosphere at 37° C. in 5% CO2. One million cells were seeded in 100 mm cell culture dish (Day 1). Cells were transfected with 4 μg Tango-MRGPRX2 construct using Lipofectamine 2000 reagent (Day 2). On day 3, cells were harvested and 20,000 cells per well were plated in 80 μL medium into poly-L-lysine coated and rinsed 96-well white cell culture plates (PerkinElmer). On day 4, GE1111 (final concentration […]) is added 1 hr prior to the agonists or antagonist in dose response manner (Compound 48/80, P17, P17*A4, P17*A7 and GE1111). On day 5, medium and drugs were removed from the wells slowly (aspiration) and […] luciferase substrate solution (500 mM DTT, 10 mM CoA, 100 mM ATP, 80 mg/mL luciferin and triton lysis buffer) were added to each well. After incubation for 10 min at room temperature, luminescence was counted in PerkinElmer Victor X4. RLU (relative luminescence units) results were exported into Excel sheets and GraphPad Prism 10 was used for analysis of data. To measure constitutive basal activity, no ligand was added on day 4.

[1] = tested on: 2.5% DSS-induced colitis in C57BL/6N mice; experiment: Treatment study in 2.5% DSS-induced colitis, clinical parameters (DAI, colon, H&E); type: in vivo, mouse; details: WT mice, 2.5% DSS Day 0 to 5, ligands every alternative day to Day 12; P17 and analogues 150 μg/kg, CST-14 15 μg/kg, GE1111 300 μg/kg
Text: (§1) C57BL/6N and Mrgprb2−/− adult mice (6-8 weeks old) were obtained from CMMR and housed in cages for acclimatation for a week. C57BL/6N and Mrgprb2−/− mice were divided into four groups (N=5-6) (2% DSS in drinking water and water control). Controls were fed with regular water and the treatment groups were exposed to 2% DSS for 5 days (Day 0 to Day 5) and regular water till Day 12. DSS-Colitis Grade (36,000-50,000 MW) (MP Biomedicals, Santa Ana, CA) was used in this study. During experiments, these mice were given anaesthesia to harvest blood and organs for other biochemical and histology analysis. For the survival study with Mrgprb2/x2 agonists, C57BL/6N mice were grouped into […] (N=10) and fed with 4% DSS for 5 days (Day 0 to 5) and replaced with regular drinking water for the rest of the experiment. Meanwhile, Mrgprb2/x2 ligands were given to the animals every alternative day via i.p. injection 100 μL with 10 μg/kg mice. […]
All animals were examined daily and the disease activity index (DAI) score was assessed as previously described by assessing stool consistency, presence of blood in stool and body weight change as summarised in Table 1. Percentage of body weight was calculated relative to the initial body weight at Day 0 [(Weight on a Day−Initial weight at Day 0/Initial weight at Day 0)×100].

[2] = tested on: cytokine and chemokine releases in the blood; experiment: Cytokine array analysis of blood plasma; type: in vivo, mouse; details: mice exposed to 2.5% DSS, 40-target array
Protocol: The cytokine membranes were blocked with blocking buffer in room temperature for 1 hr. The blocking buffer was removed from the membranes and […] of plasma obtained from the treatment groups (WT+Water, WT+2% DSS, Mrgprb2−/−+Water and Mrgprb2−/−+2% DSS; Water+Saline, 2.5% DSS+Saline, 2.5% DSS+P17*A7 and 2.5% DSS+GE1111) diluted in blocking buffer (total volume 1 mL) were subjected to membrane containing array of antibodies anti-cytokines. The membranes were first incubated at 4 °C for 24 hr in the blocking buffer, following five washes with washing buffers (I and II) and then incubated with 1× biotin-conjugated anti-cytokines overnight at 4 °C. Membranes were washed again with washing buffers (I and II) 5 five times and incubated with 1×HRP-conjugated streptavidin for 2 hr at room temperature. Membranes were washed again, and 1 mL of detection buffer C and D were mixed and added to each membrane in dark for 2 min before imaging. Finally, array images were measured with ChemiDoc MP (Bio-Rad Laboratories, Hercules, CA). The detailed protocol can be referred to the instructions of a Cytokine Antibody Array Kit (ab133999—40 targets, Abcam).

[3] = tested on: M-CSF, BLC, G-CSF and sTNF RI in blood plasma; experiment: ELISA of cytokines in blood plasma; type: in vivo, mouse; details: mice exposed to 2.5% DSS
Protocol: Concentrations of cytokines in blood plasma of the treatment groups (WT+Water, WT+2% DSS, Mrgprb2−/−+Water, Mrgprb2−/−+2% DSS, Water+Saline, 2.5% DSS+Saline, 2.5% DSS+P17, 2.5% DSS+P17*A4, 2.5% DSS+P17*A7, 2.5% DSS+CST-14 and 2.5% DSS+GE1111) were determined using ELISA kits (M-CSF-ab199084, Abcam; LIX—ab264611, Abcam; sTNF RI—ab202408, Abcam; G-CSF—ab197743, Abcam; BLC-EMCXCL13, Thermofisher) according to the manufacturer's protocol. Optical densities of the samples and standards were measured using PerkinElmer Victor X4. Cytokine concentrations were determined by comparing the optical density from the standard curve of each cytokine standards.

[4] = tested on: 4% DSS-induced colitis in C57BL/6N mice; experiment: Survival study in 4% DSS-induced colitis; type: in vivo, mouse; details: WT mice, i.p. every alternative day
Text: as §1, with “mice. For the treatment study with Mrgprb2/x2 ligands, C57BL/6N mice were divided into 7 groups (N=8 per group). Six groups were receiving 2.5% DSS dissolved in drinking water for 5 days (Day 0 to Day 5) and regular water till Day 12 and the control group was receiving water from Day 0 to Day 12. These 6 groups exposed to 2.5% DSS were treated with Mrgprb2/x2 ligands or saline for every alternative day till Day 12.” for “mice.”

[5] = tested on: Mrgpra1 and Mrgprb2 expression in colon; experiment: qRT-PCR of mouse orthologs of Mrgprx2 in colon; type: in vivo; details: WT mice, 2.5% DSS-induced colitis
Protocol: To assess the gene expression profile in colon, distal colons were used to isolate total RNA using Trizol. Total RNA was precipitated for 30 min in […] with isopropanol and glycogen. The precipitated RNA was then washed with 75% ethanol and resuspended in RNase-free water for first strand cDNA synthesis following the protocol from HiScript® II Q RT SuperMix (Vazyme biotech co., ltd, China). cDNA harvested were quantified by quantitative PCR (7300 Real-Time PCR System, Applied Biosystems, Forster City, CA). The expression of genes was examined using ChamQ™ SYBR Color qPCR Master Mix as specified by the manufacturer protocol. All primer sequences are shown in Supplementary Table S1. […] method was employed for data analysis with the internal control, glyceraldehyde-3-phosphate dehydrogenase (gapdh).

[6] = tested on: pERK 1/2 MAPK pathway and STIM1 in LAD2 mast cells; experiment: Western blot of LAD2 mast cells treated with Mrgprx2 ligands (pERK1/2, STIM1); type: cell-based; details: GE1111 25 μM added 30 min prior to agonists
Protocol: LAD2 cells were treated with agonists (1 μM Compound 48/80, P17, P17*A4, P17*A7 and 25 μM GE1111) for 15 min. For antagonist study, GE1111 (25 μM) were added 30 min prior to adding the agonists ([…] Compound 48/80, P17, P17*A4 and P17*A7). Cells were harvested and RIPA buffer containing cocktail mix of phosphatase and protease inhibitors was used to extract protein. Upon Bradford assay, harvested proteins were denatured with Lamelli buffer at 95° C. for 5 min. Protein samples were loaded in SDS-PAGE and transferred to nitrocellulose membrane. Membranes were blocked with 5% BSA for 1 hr and incubated at 4° C. overnight with primary antibodies (1:1000) in BSA (p44/42 MAPK (Erk1/2) (137F5) Rabbit mAb #4695, cell signalling, USA; Phospho-p44/42 MAPK (Erk1/2) (Thr202/Tyr204) (D13.14.4E) XP® Rabbit mAb #4370, Cell Signalling, USA; GAPDH (14C10) Rabbit mAb #2118, Cell signalling, USA; STIM1 Antibody #4916, Cell Signalling, USA) followed by (1:2000) HRP linked anti-rabbit secondary antibody (Anti-rabbit IgG, HRP-linked Antibody #7074) in 1 hr at room temperature. ECL was added and blots were visualized with Bio Rad CHEMIDOC™ MP imaging system.

[7] = tested on: DSS-induced colitis in mice models; details: recent studies [41]-[44]; cited from earlier work

COC(=O)c1cc2cc(NC(N)=O)ccc2cc1-c1cc2c3c(c(O)ccc3c1)C(C)C(C=O)=C2 (stereo not shown) [GE1111]
effect on agonist-induced β-arrestin recruitment (Mrgprx2; GE1111 (final concentration 10 PM) added 1 hr prior to the agonists): antagonized the agonist activity
GE1111 dose response on Mrgprx2 (no agonist) (Mrgprx2; Mrgprx2-transfected HTLA cells, GE1111 alone): behaved as an inverse agonist
severity of DSS-induced colitis [1]: reduced the severity of DSS-induced colitis
cytokine and chemokine levels in the blood plasma (array) [2]: significant modifications in most of the cytokine and chemokine levels
M-CSF, BLC and G-CSF levels in blood plasma [3]: significant reduction in these cytokine levels
survival of mice [4]: increased the survival rate; also recorded: mimicked the effect of the agonist on mice survival
expression of Mrgpra1 and Mrgprb2 in colon [5]: restored their expression to the levels of healthy mice
effect on agonist-induced pERK1/2 / STIM1 pathway [6]: antagonized this pathway

cortistatin 14 [CST-14, reference compound]
severity of DSS-induced colitis [1]: reduced the severity of DSS-induced colitis
DSS-induced colitis symptoms [7]: ameliorate DSS-induced colitis symptoms
survival of mice [4]: increased the survival rate

O=c1c(O)c(-c2ccc(O)c(O)c2)oc2cc(O)cc(O)c12 [quercetin]
DSS-induced colitis symptoms [7]: ameliorate DSS-induced colitis symptoms

protegrin
DSS-induced colitis symptoms [7]: ameliorate DSS-induced colitis symptoms
